Measured values published in ChEMBL document CHEMBL5329212, “In situ click chemistry-based discovery of 1,2,3-triazole-derived diarylpyrimidines as novel HIV-1 NNRTIs by exploiting the tolerant region I in binding pocket” (Bioorg Med Chem, 2023).

Target: Human immunodeficiency virus type 1 reverse transcriptase (Human immunodeficiency virus 1) (UniProt Q72547)
Assay: Inhibition of HIV-1 reverse transcriptase at 0.267 uM incubated for 1 hrs in presence of biotin-labeled dNTPs by ELISA assay relative to control

Compound	inhibition [%]
Cc1cccc(Cn2cc(-c3ccc(Nc4nc(Oc5c(C)cc(C#N)cc5C)c5sccc5n4)cc3)nn2)c1	21
Cc1cc(C#N)cc(C)c1Oc1nc(Nc2ccc(-c3cn(Cc4ccc(C#N)cc4)nn3)cc2)nc2ccsc12	36.9
Cc1cc(C#N)cc(C)c1Oc1nc(Nc2ccc(-c3cn(Cc4ccccc4C#N)nn3)cc2)nc2ccsc12	0.2
Cc1cc(C#N)cc(C)c1Oc1nc(Nc2ccc(-c3cn(Cc4ccccc4[N+](=O)[O-])nn3)cc2)nc2ccsc12	24.8
Cc1cc(C#N)cc(C)c1Oc1nc(Nc2ccc(-c3cn(-c4cnc5ccccc5c4)nn3)cc2)nc2ccsc12	20
Cc1cc(C#N)cc(C)c1Oc1nc(Nc2ccc(-c3cn(Cc4ccc([N+](=O)[O-])cc4)nn3)cc2)nc2ccsc12	1.6
Cc1cc(C#N)cc(C)c1Oc1nc(Nc2ccc(-c3cn(CCc4ccccc4)nn3)cc2)nc2ccsc12	27.1
Cc1cc(C#N)cc(C)c1Oc1nc(Nc2ccc(-c3cn(Cc4cccc([N+](=O)[O-])c4)nn3)cc2)nc2ccsc12	0.9
Cc1cc(C#N)cc(C)c1Oc1nc(Nc2ccc(-c3cn(CC(=O)Nc4ccc(Br)cc4)nn3)cc2)nc2ccsc12	4.1
Cc1cc(C#N)cc(C)c1Oc1nc(Nc2ccc(-c3cn(CC(=O)Nc4ccc(S(C)(=O)=O)cc4)nn3)cc2)nc2ccsc12	23.4
Cc1ccc(Cn2cc(-c3ccc(Nc4nc(Oc5c(C)cc(C#N)cc5C)c5sccc5n4)cc3)nn2)cc1	3.5
COc1ccccc1Cn1cc(-c2ccc(Nc3nc(Oc4c(C)cc(C#N)cc4C)c4sccc4n3)cc2)nn1	3.7
Cc1cc(C#N)cc(C)c1Oc1nc(Nc2ccc(-c3cn(CC(=O)NC4CC4)nn3)cc2)nc2ccsc12	29.7
Cc1cc(C#N)cc(C)c1Oc1nc(Nc2ccc(-c3cn(CS(=O)(=O)c4ccccc4)nn3)cc2)nc2ccsc12	25.6
COC(=O)CCCn1cc(-c2ccc(Nc3nc(Oc4c(C)cc(C#N)cc4C)c4sccc4n3)cc2)nn1	35.3
COC(=O)Cn1cc(-c2ccc(Nc3nc(Oc4c(C)cc(C#N)cc4C)c4sccc4n3)cc2)nn1	35.7

Compound	inhibition [%]
Cc1cc(C#N)cc(C)c1Oc1nc(Nc2ccc(-c3cn([C@H]4C[C@@H](n5cc(C)c(=O)[nH]c5=O)O[C@@H]4CO)nn3)cc2)nc2ccsc12	24.8
Cc1cc(C#N)cc(C)c1Oc1nc(Nc2ccc(-c3cn(CC(=O)N4CCCC4)nn3)cc2)nc2ccsc12	12.8
COc1ccc(-n2cc(-c3ccc(Nc4nc(Oc5c(C)cc(C#N)cc5C)c5sccc5n4)cc3)nn2)cc1	28
Cc1cc(C#N)cc(C)c1Oc1nc(Nc2ccc(-c3cn(CCc4ccsc4)nn3)cc2)nc2ccsc12	1.9
Cc1cc(C#N)cc(C)c1Oc1nc(Nc2ccc(-c3cn(-c4ccc(C(C)(C)C)cc4)nn3)cc2)nc2ccsc12	23.9
Cc1cc(C#N)cc(C)c1Oc1nc(Nc2ccc(-c3cn(CC(=O)N4CCOCC4)nn3)cc2)nc2ccsc12	21.8
Cc1cc(C#N)cc(C)c1Oc1nc(Nc2ccc(-c3cn(-c4ccc(C(=O)O)cc4Cl)nn3)cc2)nc2ccsc12	17.3
Cc1cc(C#N)cc(C)c1Oc1nc(Nc2ccc(-c3cn(C[S+]([O-])c4ccccc4)nn3)cc2)nc2ccsc12 (stereo unspecified)	24.9
Cc1cc(C#N)cc(C)c1Oc1nc(Nc2ccc(-c3cn(Cc4ccccc4Cl)nn3)cc2)nc2ccsc12	23.1
CCOC(=O)Cn1cc(-c2ccc(Nc3nc(Oc4c(C)cc(C#N)cc4C)c4sccc4n3)cc2)nn1	31.2
Cc1cc(C#N)cc(C)c1Oc1nc(Nc2ccc(-c3cn(-c4ccc(C(=O)O)cc4)nn3)cc2)nc2ccsc12	38.2
Cc1cc(C#N)cc(C)c1Oc1nc(Nc2ccc(-c3cn(Cc4cccc5ccccc45)nn3)cc2)nc2ccsc12	35.9
Cc1cc(C#N)cc(C)c1Oc1nc(Nc2ccc(-c3cn(Cc4cccc(C#N)c4)nn3)cc2)nc2ccsc12	24.7
Cc1cc(C#N)cc(C)c1Oc1nc(Nc2ccc(-c3cn(-c4cc5ccccc5s4)nn3)cc2)nc2ccsc12	0.1
Cc1cc(C#N)cc(C)c1Oc1nc(Nc2ccc(-c3cn(Cc4ccc5ccccc5c4)nn3)cc2)nc2ccsc12	1.5
